From patent US20220162192A1 (ESCAPE Bio, Inc., priority 2019, published 2022)
Read-outs that look alike come from different tables or passages of the source.

What was measured:
[1] = molecular target: T1, Recombinant G2019S-LRRK2 protein (Homo sapiens, UniProt Q5S007, G2019S); assay: LanthaScreen Kinase Activity Assay (TR-FRET), G2019S-LRRK2; format: biochemical; conditions: class symbols; 25 μM ATP, 400 nM LRRKtide, 2.9 nM kinase, 60 min at room temperature
T1 construct: purchased Life Technologies PV4881
T1 sequence (Q5S007 whole entry G2019S): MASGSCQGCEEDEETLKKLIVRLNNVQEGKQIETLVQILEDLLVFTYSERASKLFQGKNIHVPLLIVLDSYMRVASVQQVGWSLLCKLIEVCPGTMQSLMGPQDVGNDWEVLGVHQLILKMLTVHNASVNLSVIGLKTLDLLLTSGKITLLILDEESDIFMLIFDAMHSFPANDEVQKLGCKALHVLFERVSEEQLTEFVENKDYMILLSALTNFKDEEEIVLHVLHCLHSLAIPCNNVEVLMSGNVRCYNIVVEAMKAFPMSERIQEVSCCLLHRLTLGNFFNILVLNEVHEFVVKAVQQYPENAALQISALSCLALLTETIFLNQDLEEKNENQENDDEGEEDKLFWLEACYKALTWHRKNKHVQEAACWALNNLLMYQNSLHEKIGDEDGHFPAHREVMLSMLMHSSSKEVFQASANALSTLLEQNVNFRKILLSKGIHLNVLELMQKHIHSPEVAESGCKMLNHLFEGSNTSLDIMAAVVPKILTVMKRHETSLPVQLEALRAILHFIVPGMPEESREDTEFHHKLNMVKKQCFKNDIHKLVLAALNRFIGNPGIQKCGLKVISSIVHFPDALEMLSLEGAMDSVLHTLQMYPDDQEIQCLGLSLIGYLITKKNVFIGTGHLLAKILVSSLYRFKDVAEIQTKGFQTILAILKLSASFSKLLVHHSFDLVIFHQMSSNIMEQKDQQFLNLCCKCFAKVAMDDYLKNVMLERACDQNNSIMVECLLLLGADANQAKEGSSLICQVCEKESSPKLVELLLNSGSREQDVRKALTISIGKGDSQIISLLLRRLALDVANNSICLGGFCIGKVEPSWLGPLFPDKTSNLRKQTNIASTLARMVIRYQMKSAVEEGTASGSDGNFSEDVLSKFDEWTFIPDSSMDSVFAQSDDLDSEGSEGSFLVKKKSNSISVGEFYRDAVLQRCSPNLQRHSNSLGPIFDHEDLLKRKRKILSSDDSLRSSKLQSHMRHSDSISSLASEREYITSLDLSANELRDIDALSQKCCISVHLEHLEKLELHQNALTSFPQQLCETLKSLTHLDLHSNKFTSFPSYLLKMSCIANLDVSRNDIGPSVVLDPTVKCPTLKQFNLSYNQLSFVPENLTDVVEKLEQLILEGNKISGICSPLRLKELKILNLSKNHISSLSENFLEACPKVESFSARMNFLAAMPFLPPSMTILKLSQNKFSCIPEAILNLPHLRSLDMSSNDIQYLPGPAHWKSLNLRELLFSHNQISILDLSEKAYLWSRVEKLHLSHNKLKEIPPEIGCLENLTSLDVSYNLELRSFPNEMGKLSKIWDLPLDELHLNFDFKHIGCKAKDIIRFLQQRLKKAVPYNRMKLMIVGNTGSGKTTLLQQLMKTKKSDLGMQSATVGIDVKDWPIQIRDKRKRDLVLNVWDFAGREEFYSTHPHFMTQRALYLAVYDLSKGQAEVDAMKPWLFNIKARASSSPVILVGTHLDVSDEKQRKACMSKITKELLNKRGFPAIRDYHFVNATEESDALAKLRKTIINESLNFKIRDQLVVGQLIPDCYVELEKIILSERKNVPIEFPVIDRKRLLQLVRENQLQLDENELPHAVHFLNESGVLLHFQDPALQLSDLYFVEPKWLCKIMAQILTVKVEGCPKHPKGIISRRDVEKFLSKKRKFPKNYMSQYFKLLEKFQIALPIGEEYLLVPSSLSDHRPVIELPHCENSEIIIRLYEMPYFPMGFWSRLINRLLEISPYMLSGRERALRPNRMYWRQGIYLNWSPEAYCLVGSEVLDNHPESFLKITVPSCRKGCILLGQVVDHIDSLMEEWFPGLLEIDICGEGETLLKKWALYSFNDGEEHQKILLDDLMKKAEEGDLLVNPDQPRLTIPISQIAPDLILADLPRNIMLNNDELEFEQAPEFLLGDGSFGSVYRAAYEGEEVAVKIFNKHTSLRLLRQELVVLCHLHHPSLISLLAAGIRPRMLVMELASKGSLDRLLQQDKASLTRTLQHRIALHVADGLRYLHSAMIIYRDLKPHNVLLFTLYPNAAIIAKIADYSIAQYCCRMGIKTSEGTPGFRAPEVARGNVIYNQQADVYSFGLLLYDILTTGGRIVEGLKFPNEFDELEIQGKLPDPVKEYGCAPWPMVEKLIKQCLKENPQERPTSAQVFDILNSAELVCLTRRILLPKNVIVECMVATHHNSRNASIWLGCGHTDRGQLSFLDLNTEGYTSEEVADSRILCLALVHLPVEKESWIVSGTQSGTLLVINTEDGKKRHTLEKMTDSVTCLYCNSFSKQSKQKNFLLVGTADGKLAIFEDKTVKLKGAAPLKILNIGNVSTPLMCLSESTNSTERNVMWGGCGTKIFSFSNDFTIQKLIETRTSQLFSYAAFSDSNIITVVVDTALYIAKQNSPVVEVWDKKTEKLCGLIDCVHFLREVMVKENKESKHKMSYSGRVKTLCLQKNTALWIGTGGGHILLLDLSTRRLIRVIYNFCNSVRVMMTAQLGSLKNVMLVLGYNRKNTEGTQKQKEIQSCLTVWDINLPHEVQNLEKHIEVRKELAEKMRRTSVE
Method: (§1) LRRK2 kinase activity was measured using a LanthaScreen™ Kinase Activity Assay from ThermoFisher Scientific. Recombinant wild type or G2019S-LRRK2 protein (Life Technologies, PR8604B or PV4881, respectively), was incubated with a fluorescein-labeled peptide substrate called LRRKtide that is based upon ezrin/radixin/moesin (ERM) (Life Technologies, PV4901) in the presence of ATP and serially diluted compound. After an incubation period of 1 hr, the phosphotransferase activity was stopped and a terbium-labelled anti-pERM antibody (Life Technologies, PV4899) was added to detect the phosphorylation of LRRKtide by measuring the time resolved-Forster resonant energy transfer (TR-FRET) signal from the terbium label on the antibody to the fluorescein tag on LRRKtide, expressed as the 520 nm/495 nm emission ratio. Compound-dependent inhibition of the TR-FRET signal was used to generate a concentration-response curve for IC50 determination.
(§2) The assay was carried out under the following protocol conditions: 1 mM compound in DMSO was serially diluted 1:3, 11 points in DMSO with a Biomek FX and 0.1 μL of the diluted compound was subsequently stamped into the assay plate (384-well format Lumitrac 200, Greiner, 781075) with an Echo Labcyte such that the final compound concentration in the assay was 10 μM to […]. Subsequently, 5 μL of 2× kinase solution (2.9 nM final concentration) was added to the assay plate in assay buffer composed of 50 mM Tris pH 8.5 (Sigma, T6791), 5 mM MgCl2 (Fluka, 63020), 1 mM EGTA (Sigma, E3889), 0.01% BRIJ-35 (Sigma, P1254) and 2 mM DTT. The reaction was started by addition of 2×ATP/LRRKtide solution in assay buffer such that the final concentration was 400 nM LRRKtide and 25 μM ATP. After 60 min incubation at room temperature, the reaction was stopped by addition of […] containing a final concentration of 2 nM anti-pERM antibody and 10 mM EDTA. After a 30 min incubation at RT, the TR-FRET signal was measured on a Wallac 2104 EnVision® multilabel reader at an excitation wavelength of 340 nm and reading emission at 520 nm and 495 nm. The ratio of the 520 nm and 495 nm emission was used to analyze the data.

[2] = molecular target: T2, Recombinant wild type LRRK2 protein (Homo sapiens, UniProt Q5S007); assay: LanthaScreen Kinase Activity Assay (TR-FRET), wild type LRRK2; format: biochemical; conditions: 25 μM ATP, 400 nM LRRKtide, 2.9 nM kinase, 60 min at room temperature, read-out: LRRK2 WT IC50
T2 construct: purchased Life Technologies PR8604B
T2 sequence (Q5S007 whole entry): as the sequence (Q5S007 whole entry G2019S) above, with S2019G counted along it
Method: as §1, §2

[3] = numeric bound instead of class symbol

IC50 [1] [nM]	IC50 ([2]; class symbols) [nM]	IC50 [2, 3] [nM]	Structure (SMILES)
≤ 100	100 to 1000		COc1ccc(C)cc1-c1n[nH]c2ccc(NC(=O)c3c(F)cc4c(cnn4C)c3F)cc12 [Example 89, 4,6-Difluoro-N-(3-(2-methoxy-5-methylphenyl)-1H-indazol-5-yl)-1-methyl-1H-indazole-5-carboxamide]
1000 to 10000		> 10000	Cc1n[nH]c2ccc(NC(=O)c3cc4nn[nH]c4cc3C(F)(F)F)cc12 [Example 10, N-(3-Methyl-1H-indazol-5-yl)-6-(trifluoromethyl)-1H-benzo[d][1,2,3]triazole-5-carboxamide]
≤ 100	≤ 100		Cc1cn2cncc2cc1C(=O)Nc1ccc2[nH]nc(-c3ccoc3)c2c1 [Example 152, N-(3-(Furan-3-yl)-1H-indazol-5-yl)-6-methylimidazo[1,5-a]pyridine-7-carboxamide]
1000 to 10000	1000 to 10000		Cc1ccncc1-c1n[nH]c2ccc(NC(=O)c3c(F)cc4c(cnn4C)c3F)cc12 [Example 38, 4,6-Difluoro-1-methyl-N-(3-(4-methylpyridin-3-yl)-1H-indazol-5-yl)-1H-indazole-5-carboxamide]
≤ 100	100 to 1000		Cc1n[nH]c2ccc(NC(=O)c3c(Cl)cn4cnnc4c3Cl)cc12 [Example 56, 6,8-Dichloro-N-(3-methyl-1H-indazol-5-yl)-[1,2,4]triazolo[4,3-a]pyridine-7-carboxamide]
100 to 1000	100 to 1000		Cc1cc2[nH]cnc2cc1C(=O)Nc1ccc2[nH]nc(Br)c2c1 [Example 18, N-(3-Bromo-1H-indazol-5-yl)-6-methyl-1H-benzo[d]imidazole-5-carboxamide]
≤ 100	100 to 1000		Cc1nocc1-c1n[nH]c2ccc(NC(=O)c3c(F)cc4c(cnn4C)c3F)cc12 [Example 30, 4,6-Difluoro-1-methyl-N-(3-(3-methylisoxazol-4-yl)-1H-indazol-5-yl)-1H-indazole-5-carboxamide]
100 to 1000	1000 to 10000		Cc1cnccc1-c1n[nH]c2ccc(NC(=O)c3c(F)cc4c(cnn4C)c3F)cc12 [Example 40, 4,6-Difluoro-1-methyl-N-(3-(3-methylpyridin-4-yl)-1H-indazol-5-yl)-1H-indazole-5-carboxamide]
1000 to 10000		> 10000	Cn1ncc2c(F)c(C(=O)Nc3ccc4[nH]nc(-c5ccccc5OC(F)(F)F)c4c3)c(F)cc21 [Example 93, 4,6-Difluoro-1-methyl-N-(3-(2-(trifluoromethoxy)phenyl)-1H-indazol-5-yl)-1H-indazole-5-carboxamide]
≤ 100	100 to 1000		Cn1ncc2c(F)c(C(=O)Nc3ccc4[nH]nc(-c5ccccc5)c4c3)c(F)cc21 [Example 50, 4,6-Difluoro-1-methyl-N-(3-phenyl-1H-indazol-5-yl)-1H-indazole-5-carboxamide]
≤ 100	≤ 100		O=C(Nc1ccc2[nH]nc(-c3ccoc3)c2c1)c1ccc2cnsc2c1 [Example 156, N-(3-(Furan-3-yl)-1H-indazol-5-yl)benzo[d]isothiazole-6-carboxamide]
≤ 100	≤ 100		Cn1ncc2c(F)c(C(=O)Nc3ccc4[nH]nc(-c5ccsc5)c4c3)c(F)cc21 [Example 100, 4,6-Difluoro-1-methyl-N-(3-(thiophen-3-yl)-1H-indazol-5-yl)-1H-indazole-5-carboxamide]
≤ 100	100 to 1000		COc1cnccc1-c1n[nH]c2ccc(NC(=O)c3c(F)cc4c(cnn4C)c3F)cc12 [Example 103, 4,6-Difluoro-N-(3-(3-methoxypyridin-4-yl)-1H-indazol-5-yl)-1-methyl-1H-indazole-5-carboxamide]
≤ 100	≤ 100		COc1cncc(-c2n[nH]c3ccc(NC(=O)c4c(F)cc5c(cnn5C)c4F)cc23)c1 [Example 82, 4,6-Difluoro-N-(3-(5-methoxypyridin-3-yl)-1H-indazol-5-yl)-1-methyl-1H-indazole-5-carboxamide]
